The source of these data is patent US8486936B2, “Antagonist of smoothened” (AllaChem, LLC, priority 2009, dated 2013).

The experiment concerns Hh-signalling cascade. The experiment can be described thus: Inhibition of SHh-stimulated alkaline phosphatase in C3H10T1/2 cells (Hh-signalling cascade IC50). The format is cell-based. As to conditions: Mus musculus, C3H 10T1/2, 384-well plates, triplicates, SHh protein stimulation, read-out: Activity (IC50, half maximal inhibition of stimulation of cell alkaline phosphatase by SHh). Here is the method: Version 1—manual setup, 96-well plates, dose-response, C3H/10T1/2 cells. Aim: to determine activity of Sonic Hedgehog pathway inhibitors.
• C3H/10T1/2 cells, grown in DMEM medium/10% FBS to 60-80% confluent • Assay Plates: 96-well half-area tissue culture plates Corning cat. #3697 • Tested compounds as 10 mM DMSO solutions in 96-tube racks • Recombinant Human Sonic Hedgehog (C2411) protein, RDS product #1845-SH, reconstituted at 200 μg/ml in PBS. • Lysis Buffer: 10 mM Ethanolamine Buffer (pH 8.0), 0.2% Triton-X100, supplemented 1:100 with Protease Inhibitor Cocktail (EMD Bioscience product #539134). • CSPD Alkaline Phosphatase Substrate with Emerald-II (Applied Biosystems product #T2212). • Prepare 1 Assay plate for every 4 compounds (see FIG. 1): • 1. Harvest C3H/10T1/2 cells with TrypLE Express solution according to a regular cell subculture protocol • 2. Count the cells and calculate dilution necessary to obtain cell suspension at 5×10^3 cells per 40 μl ([…]) • 3. Dilute cells with DMEM/10% FBS and distribute at 40 μl/well • 4. Place the plate(s) into the incubator and allow cells to attach for 3-5 hours • Prepare dilution plate: • 1. Designate 1 column for each compound • 2. Add 99 μl of DMEM/10% FBS to the wells in row A and 50 μl to the wells in rows B-H • 3. Add 1 μl of compound DMSO stocks to the wells in row A, mix, change the tip. • 4. Transfer […] of compound solutions in row A to the wells in row B, mix, change the tip • 5. […] Row G is a “no compound” positive control; row H is a “no Hedgehog” negative control • Add 5 μl/well of 10× compound dilutions from dilution plate to the corresponding wells in assay plates (see assay plate layout). Use 125 μl automatic repeating pipettor. • Place plates into incubator for 20-30 min. • Prepare 3 μg/ml 10× solution of Sonic Hedgehog (C24II) protein (Hh) in DMEM/10% FBS: • 1. Calculate total volume needed as 500 μl per full plate or 125 μl per each compound tested • 2. Add 1.5 μl of Hh stock solution (200 μg/ml in PBS) per each 98.5 μl of medium • Add 5 μl/well of 10× Hh solution to the wells in rows A-G, add 5 μl/well of medium to the wells in row H (see assay plate layout). Use 125 μl automatic repeating pipettor. • Place plates into incubator for 3 days. • Wash cells on plate: aspirate medium, add 100 μl/well of PBS or HBSS and aspirate again. • Add 20 μl/well of lysis buffer and incubate for 15 min. at room temperature on a shaker platform. • Transfer 7.5 μl/well of cell lysate into white opaque plates and add 45 μl/well of CSPD Alkaline Phosphatase substrate. • Cover from light and incubate for 45 min. at room temperature on a shaker platform. • Read the plate(s) on Wallac VictorV reader using Luminescence (0.1 s) protocol.
Cells C3H10T1/2 were used for identification of inhibitors of SHh-protein signaling cascade. SHh-protein activates cells C3H10T1/2, that leads to their osteogenic differentiation [1) Kinto N., Iwamoto M., Enomoto-Iwamoto M., Noji S., Ohuchi H., Yoshioka H., Kataoka H., Wada Y., Yuhao G., Takahashi H. E., Yoshiki S., Yamaguchi A. Fibroblasts expressing Sonic hedgehog induce osteoblast differentiation and ectopic bone formation. FEBS Lett. 1997; 404 (2-3): 319-23. 2) Spinella-Jaegle S., Rawadi G., Kawai S., Gallea S., Faucheu C., Mollat P., Courtois B., Bergaud B., Ramez V., Blanchet A. M., Adelmant G., Baron R., Roman-Roman S. Sonic hedgehog increases the commitment of pluripotent mesenchymal cells into the osteoblastic lineage and abolishes adipocytic differentiation. J. Cell Sci. 2001; 114 (Pt 11): 2085-94] and, in particular, to expression enhancement of alkaline phosphatase enzyme.
The cells were cultivated in DMEM medium with 10% embryonal calfish serum in incubator at 37° C., 100% humidity and 5% CO2 content. The cells were placed in 384-well plates and left for a night. […]

The structures appear in SMILES notation. Bounds are passed on as bounds.

Broadly, the IC50 is the concentration at which inhibition is half-maximal. Consider `COc1ccc(C(=O)Nc2ccc(-c3cn4cccc(C)c4n3)cc2)c(Br)c1` [Cpd-001], for which the half-maximal inhibitory concentration (IC50) was less than 0.5 µM.

On to `Cc1cccn2cc(-c3ccc(NC(=O)c4ccc(S(C)(=O)=O)cc4Cl)cc3)nc12` [Cpd-002], for which the IC50 is less than 0.5 µM.

In the case of `Cc1cccn2cc(-c3ccc(NC(=O)c4ccc(S(C)(=O)=O)cc4Br)cc3)nc12` [Cpd-003], the IC50 is less than 0.5 µM.

Regarding `COc1ccc(C(=O)Nc2ccc(-c3cn4cccc(C)c4n3)cc2)c(Oc2ccncc2)c1` [Cpd-004], the IC50 was in the range of 0.5 to 5 µM.

For `COc1ccc(C(=O)Nc2ccc(-c3cn4cccc(C)c4n3)cc2)c(Cl)c1` [Cpd-005], the IC50 was less than 0.5 µM.

In the case of `Cc1cccn2cc(-c3ccc(NC(=O)c4ccccc4F)cc3)nc12` [Cpd-006], the half-maximal inhibitory concentration (IC50) lay in the range of 0.5 to 5 µM.

In the case of `Cc1cccn2cc(-c3ccc(NC(=O)c4ccc(F)cc4F)cc3)nc12` [Cpd-007], the IC50 was 5 to 50 µM.

As for `CCc1cccn2cc(-c3ccc(NC(=O)c4ccc(F)cc4F)cc3)nc12` [Cpd-008], the IC50 was 0.5 to 5 µM.

As for `Cc1cccn2cc(-c3ccc(NC(=O)c4ccc(Cl)cc4Cl)cc3)nc12` [Cpd-009], the IC50 fell in the range of 5 to 50 µM.

Take `CCOc1ccc(C(=O)Nc2ccc(-c3cn4cccc(C)c4n3)cc2)c(Cl)c1` [Cpd-010]: the IC50 was less than 0.5 µM.

Regarding `COc1ccc(C(=O)Nc2ccc(-c3cn4cccc(C)c4n3)cc2)c(F)c1` [Cpd-011], the IC50 was less than 0.5 µM.

In the case of `Cc1cccn2cc(-c3ccc(NC(=O)c4ccc5c(c4)OCO5)cc3)nc12` [Cpd-012], the IC50 fell in the range of 0.5 to 5 µM.

Take `COc1ccc(C(=O)Nc2ccc(-c3cn4cccc(C)c4n3)cc2)cc1OC` [Cpd-013]: the IC50 was less than 0.5 µM.

With `Cc1cccn2cc(-c3ccc(NC(=O)c4ccc(C(C)C)cc4)cc3)nc12` [Cpd-014], the concentration for half-maximal inhibition (IC50) fell in the range of 5 to 50 µM.

With `Cc1cccn2cc(-c3ccc(NC(=O)c4ccc(C(C)(C)C)cc4)cc3)nc12` [Cpd-015], the IC50 was 0.5 to 5 µM.

On to `Cc1cccn2cc(-c3ccc(NC(=O)c4ccc(C(F)(F)F)cc4)cc3)nc12` [Cpd-016], for which the IC50 was more than 50 µM.

As to `Cc1cccn2cc(-c3ccc(NC(=O)c4ccc(-c5ccccc5)cc4)cc3)nc12` [Cpd-017], the IC50 was in the range of 5 to 50 µM.

Turning to `Cc1cccc(C)c1C(=O)Nc1ccc(-c2cn3cccc(C)c3n2)cc1` [Cpd-018], the IC50 is less than 0.5 µM.

For `CCOc1ccc(C(=O)Nc2ccc(-c3cn4cccc(C)c4n3)cc2)c(Br)c1` [Cpd-019], the 50% inhibitory concentration (IC50) was in the range of 0.5 to 5 µM.

As for `Cc1cc(S(C)(=O)=O)ccc1C(=O)Nc1ccc(-c2cn3cccc(C)c3n2)cc1` [Cpd-020], the 50% inhibitory concentration (IC50) is less than 0.5 µM.
